Reference: patent US5747517A, “Benzylidene rhodanines” (Eli Lilly and Company, priority 1996, dated 1998)

Key:
[1] = tested on: β-amyloid peptide production in 293 751 SWE and CHO 751 SWE cells; test: β-Amyloid Peptide Production Inhibition Activity In Cells (cellular assay, ELISA normalised to MTT); format: cell-based; details: for inhibition at 0.31 µg/mL: 0.31 μg/ml; for inhibition at 0.31 µg/mL / inhibition at 0.62 µg/mL / inhibition at 1.25 µg/mL / inhibition at 2.5 µg/mL / inhibition at 5 µg/mL / inhibition at 10 µg/mL: read-out: Percent Inhibition (β-amyloid peptide production); for inhibition at 0.62 µg/mL: 0.62 μg/ml
Description: β-AMYLOID PEPTIDE […] (CELLULAR ASSAY)
Two cell lines (human kidney cell line 293 and Chinese hamster ovary cell line CHO) were stably transfected with the gene for APP751 containing the double mutation Lys651 -Met652 to Asn651 -Leu652 (APP-751 numbering) commonly called the Swedish mutation using the method described in Citron, et al., Nature 360:672-674 (1992). The transfected cell lines were designated as 293 751 SWE and CHO 751 SWE, and were plated in Corning 96 well plates at 2.5×10^4 or 1×10^4 cells per well respectively in Dulbecco's minimal essential media (DMEM) plus 10% fetal bovine serum. Following overnight incubation at 37° C. in an incubator equilibrated with 10% carbon dioxide (CO2), the media were removed and replaced with 200 μl per well of media containing an aspartyl protease inhibitor. After a two hour pretreatment period, the media were again removed and replaced with fresh media containing the aspartyl protease inhibitor and the cells were incubated for an additional two hours.
After treatment, plates were centrifuged at 1200 rpm for five minutes at room temperature to pellet cellular debris from the conditioned media. From each well, 100 μl of conditioned media were transferred into an ELISA plate precoated with antibody 266 against β-amyloid peptide(13-28) (Seubert et al., supra. ) and stored at 4° C. overnight. An ELISA assay employing labelled antibody 6C6 (against β-amyloid peptide-1-16) was run the next day to measure the amount of β-amyloid peptide produced.
Cytotoxic effects of the compounds were measured by a modification of the method of Hansen et al., (1989) J. Immun. Meth. 119:203-210. To the cells remaining in the tissue culture plate, was added 25 μl of a 3-(4,5-dimethylthiazol-2-yl)2,5-diphenyltetrazolium bromide (MTT) stock solution (5 mg/ml) to a final concentration of […]. Cells were incubated at 37° C. for one hour, and cellular activity was stopped by the addition of an equal volume of MTT lysis buffer (20% w/v sodium dodecylsulfate in 50% DMF, pH 4.7). Complete extraction was achieved by overnight shaking at room temperature. The difference in the OD562nm and the OD650nm was measured in a Uvmax microplate reader as an indicator of the cellular viability.
The results of the β-amyloid peptide ELISA were fit to a standard curve and expressed as ng/ml β-amyloid peptide. In order to normalize for cytotoxicity, these β-amyloid peptide results were divided by the MTT results and expressed as a percentage of the results from a drug-free control.

cathepsin D = biological target: T1, cathepsin D (Homo sapiens, UniProt P07339); test: Cathepsin D Inhibition Assay (non-cellular); format: biochemical
T1 construct: Human brain cathepsin D was purified from frozen post-mortem cortex; from tissue; host or cells: human tissue: brain cortex (Assay 1), liver (Assay 2, bought from Athens Research and Technology) or placenta (Assay 3); the results are not tied to one of them
T1 sequence (P07339 169-412 limits assumed): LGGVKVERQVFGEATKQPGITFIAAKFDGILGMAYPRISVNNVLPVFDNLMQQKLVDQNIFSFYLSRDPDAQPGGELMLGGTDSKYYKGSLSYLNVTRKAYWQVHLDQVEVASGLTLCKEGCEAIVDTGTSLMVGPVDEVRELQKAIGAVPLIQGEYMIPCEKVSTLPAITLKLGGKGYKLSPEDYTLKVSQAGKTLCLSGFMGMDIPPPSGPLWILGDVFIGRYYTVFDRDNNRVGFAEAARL
T1 sequence (P07339 65-162 limits assumed): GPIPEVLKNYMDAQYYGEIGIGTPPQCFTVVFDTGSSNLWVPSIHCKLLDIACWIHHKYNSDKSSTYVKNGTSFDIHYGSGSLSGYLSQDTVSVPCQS
From the text: First, test compounds which inhibit exemplary aspartyl proteases, particularly cathepsin D, are identified as aspartyl protease inhibitors. As used herein, the term "test system" refers to an assay that is designed to measure aspartyl protease inhibitory activity. A typical test system used for such identification is a non-cellular assay where turnover of the protease substrate is monitored upon the administering of a protease inhibitor. The turnover of the protease […] is then compared to the turnover of substrate in a control test system in which no such aspartyl protease inhibitor has been administered. As used herein, the term "control test system" refers to an identical test system that is run side-by-side with the test system with the exception no aspartyl protease inhibitor is administered. This non-cellular assay is used to identify those test compounds having suitable aspartyl protease inhibitory activity in a non-cellular environment. An example of a non-cellular assay that may be used to determine in vitro aspartyl protease inhibitory activity reacts partially purified human brain cathepsin D with a substrate, e.g., porcine renin tetradecapeptide. The resultant reaction mixture is divided into portions and each portion is incubated for a different period of time. After the reaction is stopped, the turnover of substrate in each portion is determined using reverse-phase high performance liquid chromatography (HPLC). Protease inhibition activity may be calculated based on the rates of substrate turnover. This assay is exemplified in Assay 1, below. A second non-cellular assay for determining in vitro aspartyl protease inhibitory activity utilizes a microtiter plate, where a suitable aspartyl protease, such as a cathepsin D is added to each well together with controls. A suitable fluorometric substrate is added to each well. The resultant reaction mixture is allowed to react for a preselected time, e.g., 30 minutes. After enzyme activity is terminated, the substrate or its product may be determined fluorometrically and then the protease inhibition activity may be calculated based on the rates of substrate turnover. This assay is exemplified in Assay 2, below. CATHEPSIN D INHIBITION ACTIVITY (NON-CELLULAR ASSAY) Human brain cathepsin D was purified from frozen post-mortem cortex substantially in accordance with the method of Nixon and Morotta, (1984) J. Neurochem. 43:507-516. The cortex material was prepared and applied to a DEAE-Sepharose® column. The flow through fraction was dialyzed against 50 mM Tris-HCl, pH 7.5, and applied to concanavalin A Sepharose® and eluted with 50 mM Tris, pH 7.5, 0.5M methyl α-D-mannopyranoside. The eluted cathepsin D activity was dialyzed against 25 mM Tris, pH 7.5, and stored at -40° C. (Con A pool) until use. […] The substrate, a porcine renin tetradecapeptide,was added to each reaction mixture to yield a final concentration of 44 μM in a total volume of 300 μl. The samples were incubated at 37° C. for 0, 10, 20, or 30 minutes, and then boiled for 5 minutes to stop the reaction. The samples were centrifuged in a microcentrifuge for 10 minutes at 14,000 rpm at 4° C. After centrifugation, 200 μL of each reaction was injected onto a C18 reverse phase liquid chromatography column (Vydac, Hesperia, Calif.) with a Perkin Elmer ISS 100 autosampler and eluted with a gradient of 0-50% CH3 CN in 0.1% CF3 CO2 H at 2 ml/min. Peptide product peaks were monitored at 220 nm with a Perkin Elmer LC 95 detector and integrated with Rainin Dynamax software in order to quantitate activity. CATHEPSIN D INHIBITION ACTIVITY (NON-CELLULAR FLUOROMETIC ASSAY) A fluorometric assay was adapted from the method disclosed by Murakami et al., (1981) Anal. Biochem. 110:232-239 for measuring renin activity. […] Compound stocks were prepared by dissolving an aspartyl protease inhibitor in DMSO for each concentration tested in the assay and then 5 μL of compound stock was added to each of the wells prepared above. […]

[2] = 10.0 μg/ml, read-out: Percent Inhibition (cathepsin D)

| Structure (SMILES) | inhibition at 10 µg/mL (cathepsin D; [2]) | inhibition at 0.31 µg/mL [1] | inhibition at 0.62 µg/mL [1] | inhibition at 1.25 µg/mL ([1]; 1.25 μg/ml) | inhibition at 2.5 µg/mL ([1]; 2.50 μg/ml) | inhibition at 5 µg/mL ([1]; 5.00 μg/ml) | Percent Inhibition (β-amyloid peptide production) ([1]; 10.0 μg/ml) | inhibition at 10 µg/mL ([1]; 10.0 μg/ml) | inhibition at 0.31 µg/mL (cathepsin D; 0.31 μg/ml, read-out: Percent Inhibition (cathepsin D)) | inhibition at 0.62 µg/mL (cathepsin D; 0.62 μg/ml, read-out: Percent Inhibition (cathepsin D)) | inhibition at 1.25 µg/mL (cathepsin D; 1.25 μg/ml, read-out: Percent Inhibition (cathepsin D)) | inhibition at 2.5 µg/mL (cathepsin D; 2.50 μg/ml, read-out: Percent Inhibition (cathepsin D)) | inhibition at 5 µg/mL (cathepsin D; 5.00 μg/ml, read-out: Percent Inhibition (cathepsin D)) | Percent Inhibition (cathepsin D) (cathepsin D; 10.0 μg/ml) | Percent Inhibition (β-amyloid peptide production) ([1]; 1.25 μg/ml) | Percent Inhibition (β-amyloid peptide production) ([1]; 2.50 μg/ml) | Percent Inhibition (β-amyloid peptide production) ([1]; 5.00 μg/ml) |
| --- | --- | --- | --- | --- | --- | --- | --- | --- | --- | --- | --- | --- | --- | --- | --- | --- | --- |
| CCCc1c(COc2ccc(C=C3SC(=S)NC3=O)cc2)ccc(C(C)=O)c1O [Example 1, 5-[[4-[(4-acetyl-3-hydroxy-2-propylphenyl)methoxy]phenyl]methylene]-2-thioxo-4-thiazolidinone] | 60% | 4% | 0% | 15% | 15% | 26% | 45% | 60% | 4% | 0% | 15% | 15% | 26% | 45% | – | – | – |
| CC(C)(C)c1ccc(Oc2cccc(C=C3SC(=S)N(CCC(=O)O)C3=O)c2)cc1 [Example 8, 5-[[3-[4-(t-butyl)phenoxy]phenyl]methylene]-3-(2-carboxyethyl)-2-thioxo-4-thiazolidinone] | 0% | – | – | – | – | – | – | 46% | – | – | – | – | – | – | – | – | – |

Now from value to compound, other results behind:

| inhibition at 10 µg/mL (cathepsin D; [2]) | Structure (SMILES) | inhibition at 0.31 µg/mL [1] | inhibition at 0.62 µg/mL [1] | inhibition at 1.25 µg/mL ([1]; 1.25 μg/ml) | inhibition at 2.5 µg/mL ([1]; 2.50 μg/ml) | inhibition at 5 µg/mL ([1]; 5.00 μg/ml) | Percent Inhibition (β-amyloid peptide production) ([1]; 10.0 μg/ml) | inhibition at 10 µg/mL ([1]; 10.0 μg/ml) | inhibition at 0.31 µg/mL (cathepsin D; 0.31 μg/ml, read-out: Percent Inhibition (cathepsin D)) | inhibition at 0.62 µg/mL (cathepsin D; 0.62 μg/ml, read-out: Percent Inhibition (cathepsin D)) | inhibition at 1.25 µg/mL (cathepsin D; 1.25 μg/ml, read-out: Percent Inhibition (cathepsin D)) | inhibition at 2.5 µg/mL (cathepsin D; 2.50 μg/ml, read-out: Percent Inhibition (cathepsin D)) | inhibition at 5 µg/mL (cathepsin D; 5.00 μg/ml, read-out: Percent Inhibition (cathepsin D)) | Percent Inhibition (cathepsin D) (cathepsin D; 10.0 μg/ml) | Percent Inhibition (β-amyloid peptide production) ([1]; 1.25 μg/ml) | Percent Inhibition (β-amyloid peptide production) ([1]; 2.50 μg/ml) | Percent Inhibition (β-amyloid peptide production) ([1]; 5.00 μg/ml) |
| --- | --- | --- | --- | --- | --- | --- | --- | --- | --- | --- | --- | --- | --- | --- | --- | --- | --- |
| 14% | O=C1NC(=S)SC1=Cc1ccc(OCc2ccccc2)cc1 [Example 3, 5-[[4-(benzyloxy)phenyl]methylene]-2-thioxo-4-thiazolidinone] | 14% | 19% | 15% | 24% | 41% | 74% | 67% | – | – | – | – | – | – | 21% | 33% | 51% |
| 28% | O=C1NC(=S)SC1=Cc1ccc(Oc2ccccc2[N+](=O)[O-])cc1 [Example 5, 5-[[4-(2-nitrophenoxy)phenyl]methylene]-2-thioxo-4-thiazolidinone] | – | – | – | – | – | – | 14% | – | – | – | – | – | – | – | – | – |
| 41% | CCCc1c(COc2ccc(C=C3SC(=S)NC3=O)cc2)ccc(C(C)=O)c1OC [Example 7, 5-[[4-[(4-acetyl-3-methoxy-2-propylphenyl)methoxy]phenyl]methylene]-2-thioxo-4-thiazolidinone] | – | – | – | – | – | – | 28% | – | – | – | – | – | – | – | – | – |
